How the values were obtained:
Type in all cases: cell-based, human
[1] = test system: 5×-UPRE luciferase reporter (XBP-1s); test: 5×-UPRE luciferase reporter assay, HT1080 cells
Procedure: (§1) HT1080 cells stably expressing the XBP-luciferase construct were grown in 60 mm dishes to 60-70% confluency. Following hypoxia treatment, cells were washed twice with PBS, lysed in 400 μl 1× reporter lysis buffer (RLB) (Promega, Madison Wis.) for 30 min at 24° C. Lysates (100 μl) were mixed with an equal volume of luciferase substrate (Promega), and assayed using a luminometer. For 5×-UPRE-luciferase reporter assays, cells were co-transfected with the appropriate reporter plasmid and a control plasmid (pSV40-beta-gal) using Lipofectamine 2000 (Invitrogen, San Diego, Calif.). Twenty-four hours after transfection, fresh media was added, and cells were treated with Tm or shifted to hypoxia. After treatment, cells were lysed in 1×RLB and analyzed for luciferase activity as described above. Beta-galactosidase activity was determined using the beta-galactosidase enzyme assay system (Promega).
A. XBP-luciferase reporter construct. Firefly luciferase was inserted downstream of the IRE1α splice site in human XBP-1 to enable the conditional translation of luciferase under ER stress in an IRE1α-dependent manner. B. Selective inhibition of the XBP-luciferase reporter by irestatin 9389. HT1080 human fibrosarcoma cells stably expressing the XBP-luciferase reporter or CMV-luciferase were cultured in the presence of Tm (4 μg/ml) and Tg (0.4 μM) and irestatin 9389 at the indicated concentrations. After 24 hours, luciferase activity was analyzed in an automated plate reader. For each cell line, values are expressed as the percent inhibition of the median for Tm/Tg-treated wells, corrected for background. C. Structure of irestatin 9389. […] Values are expressed as the fold increases over uninduced levels. […] Cells were harvested, lysed, and analyzed by immunoblotting with antisera specific for HIF-1α (top), XBP-1s (middle) or actin (bottom). […] Total RNA was analyzed by Northern blotting using radiolabeled probes specific for P58^IPK or DER-1. […]
Since these assays employed a chimeric XBP-luciferase substrate, we next determined whether irestatin 9389 could inhibit the function of endogenous XBP-1s. […]

XBP-luciferase reporter = XBP-luciferase reporter assay under Tm or hypoxia, HT1080 cells
Procedure: as §1
A. XBP-luciferase reporter construct. Firefly luciferase was inserted downstream of the IRE1α splice site in human XBP-1 to enable the conditional translation of luciferase under ER stress in an IRE1α-dependent manner. B. Selective inhibition of the XBP-luciferase reporter by irestatin 9389. HT1080 human fibrosarcoma cells stably expressing the XBP-luciferase reporter or CMV-luciferase were cultured in the presence of Tm (4 μg/ml) and Tg (0.4 μM) and irestatin 9389 at the indicated concentrations. After 24 hours, luciferase activity was analyzed in an automated plate reader. For each cell line, values are expressed as the percent inhibition of the median for Tm/Tg-treated wells, corrected for background. C. Structure of irestatin 9389. D. XBP-luciferase reporter assay. HT1080 cells stably expressing the XBP-luciferase reporter were exposed to Tm (4 μg/ml) for 24 hours or hypoxia (0.1% oxygen) for 24 or 48 hours, in the presence of DMSO or irestatin 9389 (1 μM) as indicated. Values are expressed as the fold increases over uninduced levels. E. 5×-UPRE reporter assay. HT1080 cells were co-transfected with 5×-UPRE luciferase and SV40-beta-gal reporter plasmids, followed by exposure to Tm or hypoxia as in D. For each condition, luciferase activity is normalized to beta-galactosidase expression levels as an internal control for transfection efficiency. F. Western immunoblot analysis of XBP-1s. HT1080 cells were left untreated (lane 2) or exposed to Tm (4 μg/ml) for 20 hours in the presence of DMSO vehicle (lane 1) or the indicated irestatins (2 μM; lanes 3-6). […] Cells were harvested, lysed, and analyzed by immunoblotting with antisera specific for HIF-1α (top), XBP-1s (middle) or actin (bottom). […] Total RNA was analyzed by Northern blotting using radiolabeled probes specific for P58^IPK or DER-1. […]

HIF-1α = test: Western immunoblot of HIF-1α, HT1080 cells under hypoxia; conditions: 2 μM; 24 hours of hypoxia
Procedure: Cells (2×10^6) were cultured in 10-cm dishes, collected using a cell scraper at 4° C., and lysed by addition of 150 μl cell lysis buffer [50 mM Tris pH 7.4, 150 mM NaCl, 10% glycerol, 0.5% Triton X-100. 0.5% NP-40, 2 mM Na3VO4, 20 mM beta-glycerophosphate, 10 mM NaF, 1 mM DTT, 1 mM PMSF). Lysates were centrifuged for 5 min at 10,000×g, and proteins (˜40 μg) were resolved by SDS-PAGE followed by semi-dry transfer to nitrocellulose membranes. Membranes were blocked in TBS-5% milk supplemented with 0.1% Tween-20. The blots were then probed overnight with relevant antibodies, washed, and incubated for 2 hours with species-specific secondary antibodies conjugated to horseradish peroxidase. After washing in block solution, immunoreactive material was detected by enhanced chemiluminescence (SuperSignal West Dura Extended, Pierce, Inc., Rockville, Ill.).
A. XBP-luciferase reporter construct. […] After 24 hours, luciferase activity was analyzed in an automated plate reader. For each cell line, values are expressed as the percent inhibition of the median for Tm/Tg-treated wells, corrected for background. […] Values are expressed as the fold increases over uninduced levels. […] Cells were harvested, lysed, and analyzed by immunoblotting with antisera specific for HIF-1α (top), XBP-1s (middle) or actin (bottom). […] Total RNA was analyzed by Northern blotting using radiolabeled probes specific for P58^IPK or DER-1. […]

## Cc1csc(NC(=O)CSc2nc3c(c(C(F)(F)F)c2C#N)CCC3)n1 [Compound 9389]
[1]; 48 hours of hypoxia (vehicle 170-fold)
  diminution of hypoxia-induced UPRE luciferase response: more than 90%
[1]; cells exposed to both Tm and irestatin 9389
  induction of 5×-UPRE luciferase activity over untreated cells: < 4 fold
XBP-luciferase reporter; 1 μM, 48 hours of hypoxia (control 95-fold)
  hypoxia-induced increase of XBP-luciferase activity: robustly inhibited this response
XBP-luciferase reporter; 1 μM, hypoxia (<0.1% oxygen) for 24 or 48 hours
  activation of the XBP-luciferase reporter under hypoxia: diminished activation
XBP-luciferase reporter; Homo sapiens, HT-1080, irestatin 9389 1 μM, Tm 24 hours, read-out: inhibition of Tm-mediated activation of the XBP-luciferase reporter
  inhibition at 1 µM: > 90%
HIF-1α
  expression of HIF-1α: not affected
